{"source": "patent US4017611A", "about": "“Control of insects with 3-hydroxymethacrylic acid methyl ester dimethylthionophosphate” (priority 1970, dated 1977)", "key": {"Sitophilus granarius": {"test_system": "Sitophilus granarius", "experiment": "Durability (disinfection) test on wheat, grain weevil", "format": "in vivo", "details": "168 h, read-out: % animals dead after one week exposure", "from_the_text": "(§1) Wheat was shaken up with 5% dusting agent and then mixed again repeatedly with untreated wheat at half the poison concentration. In this way, a dilution series with concentrations of 50 - 25 - 12 - 6 - 3 - 1.5 ppm was obtained.\n(§2) Since the test is repeated once per month, the desired information is obtained concerning the residual effect. In the test, the important pests in storage protection were chosen, viz, the grain weevil (Sitophilus granarius) - lesser grain borer (Rhizopertha dominica) and the larvae of the Khapra beetle (Trogoderma granarium), which are very resistant to insecticides. 20 test insects were tested per concentration and the results are expressed in the following table."}, "Rhizopertha dominica": {"test_system": "Rhizopertha dominica", "experiment": "Durability (disinfection) test on wheat, lesser grain borer", "format": "in vivo", "details": "Rhyzopertha dominica, 168 h, read-out: % animals dead after one week exposure", "from_the_text": "as §1, §2"}, "Trogoderma granarium (L)": {"test_system": "Trogoderma granarium (L)", "experiment": "Durability (disinfection) test on wheat, larvae of the Khapra beetle", "format": "in vivo", "details": "168 h, read-out: % animals dead after one week exposure", "from_the_text": "as §1, §2"}, "Sit. Granarius": {"test_system": "Sit. Granarius", "experiment": "Diffusion action in wheat (gas phase between wheat grains)", "format": "in vivo", "details": "Sitophilus granarius, 168 h, 50 ppm treated wheat layer, read-out: Mortality in % after 7 days exposure time", "from_the_text": "A plexiglass box was divided by means of wire grids into ten vertical layers each 1 cm thick. Each compartment was filled with wheat grains. The first compartment contained wheat grains which had been treated with 50 ppm active agent (5% dusting agent). The remainder of the compartment contained untreated wheat. All the compartments were then supplied with grain weevils. The mortality was noted after 7 days exposure time and the results are expressed in the following table. Diffusion of active substance in gas phase between the wheat grains"}, "[1]": {"experiment": "Acute oral toxicity (warm blooded toxicity) in rats", "details": "rat, in vivo, po"}}, "note": "Read-outs that look alike come from different tables or passages of the source."}
{"compound": "COP(=O)(OC)OC=C(Cl)Cl", "note": "[DDVP, dimethyldichlorvinylphosphate, reference compound]", "values": [{"measurement": "mortality at 1.5 ppm", "setting": "Sitophilus granarius; wheat fresh", "result": 100, "unit": "%"}, {"measurement": "mortality at 1.5 ppm", "setting": "Sitophilus granarius; wheat stored 1 month", "result": 0, "unit": "%"}, {"measurement": "mortality at 1.5 ppm", "setting": "Sitophilus granarius; wheat stored 2 months", "result": 0, "unit": "%"}, {"measurement": "mortality at 1.5 ppm", "setting": "Sitophilus granarius; wheat stored 3 months", "result": 0, "unit": "%"}, {"measurement": "mortality at 3 ppm", "setting": "Sitophilus granarius; wheat fresh", "result": 100, "unit": "%"}, {"measurement": "mortality at 3 ppm", "setting": "Sitophilus granarius; wheat stored 1 month", "result": 5, "unit": "%"}, {"measurement": "mortality at 3 ppm", "setting": "Sitophilus granarius; wheat stored 2 months", "result": 0, "unit": "%"}, {"measurement": "mortality at 3 ppm", "setting": "Sitophilus granarius; wheat stored 3 months", "result": 0, "unit": "%"}, {"measurement": "mortality at 6 ppm", "setting": "Sitophilus granarius; wheat fresh", "result": 100, "unit": "%"}, {"measurement": "mortality at 6 ppm", "setting": "Sitophilus granarius; wheat stored 1 month", "result": 25, "unit": "%"}, {"measurement": "mortality at 6 ppm", "setting": "Sitophilus granarius; wheat stored 2 months", "result": 0, "unit": "%"}, {"measurement": "mortality at 6 ppm", "setting": "Sitophilus granarius; wheat stored 3 months", "result": 0, "unit": "%"}, {"measurement": "mortality at 12 ppm", "setting": "Sitophilus granarius; wheat fresh", "result": 100, "unit": "%"}, {"measurement": "mortality at 12 ppm", "setting": "Sitophilus granarius; wheat stored 1 month", "result": 100, "unit": "%"}, {"measurement": "mortality at 12 ppm", "setting": "Sitophilus granarius; wheat stored 2 months", "result": 55, "unit": "%"}, {"measurement": "mortality at 12 ppm", "setting": "Sitophilus granarius; wheat stored 3 months", "result": 0, "unit": "%"}, {"measurement": "mortality at 25 ppm", "setting": "Sitophilus granarius; wheat fresh", "result": 100, "unit": "%"}, {"measurement": "mortality at 25 ppm", "setting": "Sitophilus granarius; wheat stored 1 month", "result": 100, "unit": "%"}, {"measurement": "mortality at 25 ppm", "setting": "Sitophilus granarius; wheat stored 2 months", "result": 100, "unit": "%"}, {"measurement": "mortality at 25 ppm", "setting": "Sitophilus granarius; wheat stored 3 months", "result": 50, "unit": "%"}, {"measurement": "mortality at 50 ppm", "setting": "Sitophilus granarius; wheat fresh", "result": 100, "unit": "%"}, {"measurement": "mortality at 50 ppm", "setting": "Sitophilus granarius; wheat stored 1 month", "result": 100, "unit": "%"}, {"measurement": "mortality at 50 ppm", "setting": "Sitophilus granarius; wheat stored 2 months", "result": 100, "unit": "%"}, {"measurement": "mortality at 50 ppm", "setting": "Sitophilus granarius; wheat stored 3 months", "result": 99, "unit": "%"}, {"measurement": "mortality at 1.5 ppm", "setting": "Rhizopertha dominica; wheat fresh", "result": 95, "unit": "%"}, {"measurement": "mortality at 1.5 ppm", "setting": "Rhizopertha dominica; wheat stored 1 month", "result": 0, "unit": "%"}, {"measurement": "mortality at 1.5 ppm", "setting": "Rhizopertha dominica; wheat stored 2 months", "result": 5, "unit": "%"}, {"measurement": "mortality at 1.5 ppm", "setting": "Rhizopertha dominica; wheat stored 3 months", "result": 0, "unit": "%"}, {"measurement": "mortality at 3 ppm", "setting": "Rhizopertha dominica; wheat fresh", "result": 100, "unit": "%"}, {"measurement": "mortality at 3 ppm", "setting": "Rhizopertha dominica; wheat stored 1 month", "result": 5, "unit": "%"}, {"measurement": "mortality at 3 ppm", "setting": "Rhizopertha dominica; wheat stored 2 months", "result": 0, "unit": "%"}, {"measurement": "mortality at 3 ppm", "setting": "Rhizopertha dominica; wheat stored 3 months", "result": 0, "unit": "%"}, {"measurement": "mortality at 6 ppm", "setting": "Rhizopertha dominica; wheat fresh", "result": 100, "unit": "%"}, {"measurement": "mortality at 6 ppm", "setting": "Rhizopertha dominica; wheat stored 1 month", "result": 10, "unit": "%"}, {"measurement": "mortality at 6 ppm", "setting": "Rhizopertha dominica; wheat stored 2 months", "result": 5, "unit": "%"}, {"measurement": "mortality at 6 ppm", "setting": "Rhizopertha dominica; wheat stored 3 months", "result": 0, "unit": "%"}, {"measurement": "mortality at 12 ppm", "setting": "Rhizopertha dominica; wheat fresh", "result": 100, "unit": "%"}, {"measurement": "mortality at 12 ppm", "setting": "Rhizopertha dominica; wheat stored 1 month", "result": 15, "unit": "%"}, {"measurement": "mortality at 12 ppm", "setting": "Rhizopertha dominica; wheat stored 2 months", "result": 20, "unit": "%"}, {"measurement": "mortality at 12 ppm", "setting": "Rhizopertha dominica; wheat stored 3 months", "result": 0, "unit": "%"}, {"measurement": "mortality at 25 ppm", "setting": "Rhizopertha dominica; wheat fresh", "result": 100, "unit": "%"}, {"measurement": "mortality at 25 ppm", "setting": "Rhizopertha dominica; wheat stored 1 month", "result": 65, "unit": "%"}, {"measurement": "mortality at 25 ppm", "setting": "Rhizopertha dominica; wheat stored 2 months", "result": 40, "unit": "%"}, {"measurement": "mortality at 25 ppm", "setting": "Rhizopertha dominica; wheat stored 3 months", "result": 15, "unit": "%"}, {"measurement": "mortality at 50 ppm", "setting": "Rhizopertha dominica; wheat fresh", "result": 100, "unit": "%"}, {"measurement": "mortality at 50 ppm", "setting": "Rhizopertha dominica; wheat stored 1 month", "result": 100, "unit": "%"}, {"measurement": "mortality at 50 ppm", "setting": "Rhizopertha dominica; wheat stored 2 months", "result": 95, "unit": "%"}, {"measurement": "mortality at 50 ppm", "setting": "Rhizopertha dominica; wheat stored 3 months", "result": 80, "unit": "%"}, {"measurement": "mortality at 1.5 ppm", "setting": "Trogoderma granarium (L); wheat fresh", "result": 85, "unit": "%"}, {"measurement": "mortality at 1.5 ppm", "setting": "Trogoderma granarium (L); wheat stored 1 month", "result": 0, "unit": "%"}, {"measurement": "mortality at 1.5 ppm", "setting": "Trogoderma granarium (L); wheat stored 2 months", "result": 0, "unit": "%"}, {"measurement": "mortality at 1.5 ppm", "setting": "Trogoderma granarium (L); wheat stored 3 months", "result": 0, "unit": "%"}, {"measurement": "mortality at 3 ppm", "setting": "Trogoderma granarium (L); wheat fresh", "result": 100, "unit": "%"}, {"measurement": "mortality at 3 ppm", "setting": "Trogoderma granarium (L); wheat stored 1 month", "result": 0, "unit": "%"}, {"measurement": "mortality at 3 ppm", "setting": "Trogoderma granarium (L); wheat stored 2 months", "result": 0, "unit": "%"}, {"measurement": "mortality at 3 ppm", "setting": "Trogoderma granarium (L); wheat stored 3 months", "result": 0, "unit": "%"}, {"measurement": "mortality at 6 ppm", "setting": "Trogoderma granarium (L); wheat fresh", "result": 100, "unit": "%"}, {"measurement": "mortality at 6 ppm", "setting": "Trogoderma granarium (L); wheat stored 1 month", "result": 0, "unit": "%"}, {"measurement": "mortality at 6 ppm", "setting": "Trogoderma granarium (L); wheat stored 2 months", "result": 0, "unit": "%"}, {"measurement": "mortality at 6 ppm", "setting": "Trogoderma granarium (L); wheat stored 3 months", "result": 0, "unit": "%"}, {"measurement": "mortality at 12 ppm", "setting": "Trogoderma granarium (L); wheat fresh", "result": 100, "unit": "%"}, {"measurement": "mortality at 12 ppm", "setting": "Trogoderma granarium (L); wheat stored 1 month", "result": 5, "unit": "%"}, {"measurement": "mortality at 12 ppm", "setting": "Trogoderma granarium (L); wheat stored 2 months", "result": 0, "unit": "%"}, {"measurement": "mortality at 12 ppm", "setting": "Trogoderma granarium (L); wheat stored 3 months", "result": 0, "unit": "%"}, {"measurement": "mortality at 25 ppm", "setting": "Trogoderma granarium (L); wheat fresh", "result": 100, "unit": "%"}, {"measurement": "mortality at 25 ppm", "setting": "Trogoderma granarium (L); wheat stored 1 month", "result": 75, "unit": "%"}, {"measurement": "mortality at 25 ppm", "setting": "Trogoderma granarium (L); wheat stored 2 months", "result": 10, "unit": "%"}, {"measurement": "mortality at 25 ppm", "setting": "Trogoderma granarium (L); wheat stored 3 months", "result": 0, "unit": "%"}, {"measurement": "mortality at 50 ppm", "setting": "Trogoderma granarium (L); wheat fresh", "result": 100, "unit": "%"}, {"measurement": "mortality at 50 ppm", "setting": "Trogoderma granarium (L); wheat stored 1 month", "result": 100, "unit": "%"}, {"measurement": "mortality at 50 ppm", "setting": "Trogoderma granarium (L); wheat stored 2 months", "result": 45, "unit": "%"}, {"measurement": "mortality at 50 ppm", "setting": "Trogoderma granarium (L); wheat stored 3 months", "result": 0, "unit": "%"}, {"measurement": "mortality at 50 ppm", "setting": "Sit. Granarius; distance 1 cm", "result": 100, "unit": "%"}, {"measurement": "mortality at 50 ppm", "setting": "Sit. Granarius; distance 2 cm", "result": 100, "unit": "%"}, {"measurement": "mortality at 50 ppm", "setting": "Sit. Granarius; distance 3 cm", "result": 80, "unit": "%"}, {"measurement": "mortality at 50 ppm", "setting": "Sit. Granarius; distance 4 cm", "result": 0, "unit": "%"}, {"measurement": "mortality at 50 ppm", "setting": "Sit. Granarius; distance 5 cm", "result": 0, "unit": "%"}, {"measurement": "mortality at 50 ppm", "setting": "Sit. Granarius; distance 6 cm", "result": 0, "unit": "%"}, {"measurement": "LD50", "setting": "[1]", "result": 50, "unit": "mg/kg"}]}
